For the assay, the system named is AMPK. Nature of the assay: AMPK activation assay (enzyme-linked immunosorbent assay). The assay is classed as cell-based. The procedure, abridged: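 Compounds were tested for their capacity to activate the kinase using standard, commercially available kit reagents and procedures.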
Usually EC50 stands for the midpoint of the concentration-response curve. Lower therefore signals greater potency. Molecule `N#Cc1ccc(OC2CCN(C(=O)c3ccc(C(=O)N[C@H]4CC[C@@H](Oc5ccc(C#N)cc5)CC4)cn3)CC2)cc1` [Compound 321, N-((cis)-4-(4-cyanophenoxy)cyclohexyl)-6-(4-(4-cyanophenoxy)piperidine-1-carbonyl)nicotinamide] came in with an EC50 below 500 nM.

In the case of `CC(C)(C)OC(=O)N1CCC(NC(=O)c2ccc(C(=O)N3CCC(Oc4ccc(C#N)cc4)CC3)nc2)CC1` [Compound 333, tert-butyl 4-(6-(4-(4-cyanophenoxy)piperidine-1-carbonyl)nicotinamido) piperidine-1-carboxylate], the EC50 was below 500 nM.

As for `N#Cc1ccc(CN2CCC(NC(=O)c3ccc(C(=O)N4CCN(C(=O)c5ccc(C(=O)NC6CCN(Cc7ccc(C#N)cc7)CC6)nc5)CC4)cn3)CC2)cc1` [Compound 75, 5,5′-(piperazine-1,4-diylbis(oxomethylene))bis(N-(1-(4-cyanobenzyl)piperidin-4-yl)picolinamide)], the EC50 fell in the range of 1000 to 5000 nM.

As for `COc1ccc(C(=O)C2CCN(C(=O)c3ccc(C(=O)N[C@@H]4CCN(Cc5cc(C)on5)C[C@@H]4F)cn3)CC2)cc1` [Compound 426, N-((3S,4R)-3-fluoro-1-((5-methylisoxazol-3-yl)methyl)piperidin-4-yl)-6-(4-(4-methoxybenzoyl)piperidine-1-carbonyl)nicotinamide], the EC50 is below 500 nM.

Turning to `Cc1nc(Oc2ccc(C#N)cc2)ccc1NC(=O)c1ccc(C(=O)N2CCC(C(=O)c3ccc(F)cc3F)CC2)nc1` [Compound 479, N-(6-(4-cyanophenoxy)-2-methylpyridin-3-yl)-6-(4-(2,4-difluorobenzoyl)piperidine-1-carbonyl)nicotinamide], the EC50 is below 500 nM.

Take `N#Cc1ccc(OC2CCN(C(=O)c3ccc(C(=O)NC4CCN(Cc5cc(F)cc(F)c5)CC4)cn3)CC2)cc1` [Compound 322, 6-(4-(4-cyanophenoxy)piperidine-1-carbonyl)-N-(1-(3,5-difluorobenzyl)piperidin-4-yl)nicotinamide]: the half-maximal effective concentration (EC50) is below 500 nM.

For `CCOC(=O)c1ccc(OC2CCN(C(=O)c3ccc(C(=O)NC4CCN(Cc5ccc(C#N)cc5)CC4)nc3)CC2)cc1` [Compound 284, ethyl 4-(1-(6-(1-(4-cyanobenzyl)piperidin-4-ylcarbamoyl)nicotinoyl)piperidin-4-yloxy)benzoate], the EC50 is below 500 nM.

As to `N#Cc1ccc(CN2CCC(NC(=O)c3ccc(C(=O)N4CCN(Cc5ccc(F)cc5)CC4)nc3)CC2)cc1` [Compound 1], the concentration for a half-maximal effect (EC50) is below 500 nM.

The molecule `N#Cc1ccc(OC2CCN(C(=O)c3ccc(C(=O)NC4CCN(Cc5ccc(F)cc5)CC4)nc3)CC2)cc1` [Compound 200, 5-(4-(4-cyanophenoxy)piperidine-1-carbonyl)-N-(1-(4-fluorobenzyl)piperidin-4-yl)picolinamide] yielded an EC50 below 500 nM.

`O=C(c1ccccc1)c1ccc(NC(=O)c2ccc(C(=O)N3CCN(Cc4ccc(F)cc4)CC3)cn2)cc1` [Compound 26, N-(4-benzoylphenyl)-5-(4-(4-fluorobenzyl)piperazine-1-carbonyl)picolinamide] displayed a concentration giving a half-maximal response (EC50) below 500 nM.

The values are drawn from patent US20150087673A1, “METHODS FOR USING AND BIOMARKERS FOR AMPK-ACTIVATING COMPOUNDS” (RIGEL PHARMACEUTICALS, INC., priority 2013, published 2015).
